Consider nine compounds from patent US5571820A, “Heterocyclic compound” (Taisho Pharmaceutical Co., Ltd., priority 1992, dated 1996).

In assay [1] the target is T1, serotonin 4 receptor (Cavia porcellus, UniProt O70528).
T1 construct: from tissue; host or cells: ileum longitudinal muscle strips of Hartley guinea pig
As to the kind of experiment: Serotonin 4 receptor stimulating activity: twitch responses of electrically stimulated ileum longitudinal muscle strips. Format: cell-based, guinea pig (Hartley). The following applies: for EC50: twitch responses, guinea pig ileum longitudinal muscle strips, cumulative additions of agonist, read-out: ED50 of the serotonin 4 receptor stimulating activity. From the text:
Experiment 1. Serotonin 4 Receptor Stimulating Activity Compounds Tested
Twitch responses were examined in longitudinal muscle strips of guinea pig by a modification of the method described in The Journal of Pharmacology and Experimental Therapeutics, 252, 1378, 1990.
From Hartley guinea pigs, a section of ileum 25 cm in length and proximal to the ileocecal junction was removed. The longitudinal muscle strips obtained from two segments of ileum about 4 cm each in length were used for this experiment. The longitudinal muscle strips were suspended in Krebs' solution at 32° to 34° C. and bubbled with 95% O2 and 5% CO2 under a load of about 0.8 g. Twitch responses were recorded under electrical stimulation of 0.2 Hz, 1 msec pulse duration, using force displacement transducers. The longitudinal muscle strips, stimulated at supramaximal voltage, were allowed to equilibrate for about an hour. […] The test was carried out by exposing the strips to cumulative additions of agonist at least at 45-minute intervals.

Assay [2] deals with serotonin 4 receptor. To be noted: Alimentary Pharmacology and Therapeutics, 6, 273, 1992; cited from earlier work.
Assay [3] relates to gastrointestinal motor functions. The following applies: Alimentary Pharmacology and Therapeutics, 6, 273, 1992; cited from earlier work.

T1 sequence (O70528 whole entry): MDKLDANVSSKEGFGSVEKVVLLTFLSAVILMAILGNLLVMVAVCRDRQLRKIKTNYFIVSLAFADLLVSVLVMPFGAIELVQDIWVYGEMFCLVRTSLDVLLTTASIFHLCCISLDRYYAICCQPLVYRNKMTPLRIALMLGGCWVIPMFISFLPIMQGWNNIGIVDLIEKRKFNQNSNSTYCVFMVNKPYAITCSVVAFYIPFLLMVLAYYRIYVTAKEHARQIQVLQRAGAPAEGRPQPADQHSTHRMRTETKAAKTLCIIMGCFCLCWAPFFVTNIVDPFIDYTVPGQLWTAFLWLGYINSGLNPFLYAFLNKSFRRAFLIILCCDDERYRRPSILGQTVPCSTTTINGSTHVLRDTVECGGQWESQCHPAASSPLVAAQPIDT

Turning to `NCCc1c[nH]c2ccc(O)cc12` [5-hydroxytryptamine (5-HT), 5-hydroxytryptamine], the “enhancement of twitch responses” value on serotonin 4 receptor [1] (10^-8 M) was “twitch responses were enhanced”.
On to `COc1cc(N)c(Cl)cc1C(=O)NC1CCN(CCCOc2ccc(F)cc2)CC1OC` (centres unmarked) [Cisapride], for which, in the assay on serotonin 4 receptor [2], the “stimulation of serotonin 4 receptor” value was “stimulants of serotonin 4 receptor”. The “effect on gastrointestinal motor functions and conditions” value in assay [3] is “accelerate gastrointestinal motor functions and improve gastrointestinal conditions”.
For `CCn1c(=O)c(C(=O)N[C@H]2C[C@H]3CC[C@@H](C2)N3C)cc2ccccc21` [Compound 2], the EC50 at serotonin 4 receptor [1] amounted to 0.138 µM.
On the same count and under the same terms, the result for `CCCn1c(=O)c(C(=O)N[C@H]2C[C@H]3CC[C@@H](C2)N3C)cc2ccccc21` [Compound 3] reads 0.413 µM.
On the same count and under the same terms, the result for `CCCCn1c(=O)c(C(=O)N[C@H]2C[C@H]3CC[C@@H](C2)N3C)cc2ccccc21` [Compound 4] reads more than 3 µM; that for `CC(C)Cn1c(=O)c(C(=O)N[C@H]2C[C@H]3CC[C@@H](C2)N3C)cc2ccccc21` [Compound 5], 0.974 µM; that for `CN1[C@@H]2CC[C@H]1C[C@@H](NC(=O)c1cc3ccccc3[nH]c1=O)C2` [Compound 6], more than 3 µM.
Same read-out and setting: the result for `CCCCn1c(=O)c(C(=O)N[C@H]2C[C@H]3CC[C@@H](C2)N3C)c(O)c2ccccc21` [Compound 7] reads more than 3 µM.
Regarding `COc1cc(N)c(Cl)cc1C(=O)NC1CCN2CCCC1C2` (centres unmarked) [renzapride], in the assay on serotonin 4 receptor [2], the “stimulation of serotonin 4 receptor” value is “stimulants of serotonin 4 receptor”. Besides, the “effect on gastrointestinal motor functions and conditions” value in assay [3] was “accelerate gastrointestinal motor functions and improve gastrointestinal conditions”.
